One block for each molecule: values may come before it.
What was measured:
[1] = moisture sorption (dynamic vapor sorption) and visual onset of crystallization in microwave-dried amorphous trehalose/salt samples at 61% RH; assay type: physicochemical
Description: A stock solution of 30.8 wt % trehalose (1.3 M), made in 1×TE buffer (1×Tris-EDTA buffer, pH 8.0, consisting of 10 mM Tris-HCl and 1 mM EDTA), was used to prepare solutions with varying amounts of phosphate salts (salt to trehalose molar ratio (R) is 1:4.8, 1:2 and 1:0.7). […] The end moisture content was measured below 0.105 gH2O/gdw which is known to produce a glass transition temperature higher than room temperature in the case of aqueous trehalose solutions. […] Specifically, in order to investigate moisture sorption in different trehalose/salt compositions at the 61% relative humidity, a closed environment with a stable relative humidity over the test duration was prepared. Supersaturated salt solutions of sodium bromide (prepared by following ASTM Protocol E 104-02) are capable of producing an environment with constant relative humidity of 61%. […] glass jars with rubber seals and clamps or Mason glass jars with screw caps are used as controlled humidity vessels (1 L, total height 159 mm, mouth Dia. 89 mm). The dynamic vapor sorption (DVS) method was used to monitor moisture sorption in the microwave-processed trehalose samples before and after crystallization (crystals were detected visually in samples). The moisture uptake in trehalose/salt samples were monitored to evaluate the effect of salts on end moisture content at time zero after microwave processing at 11% RH. Moisture sorption trends in samples over the experiment duration while held in the preservation jars (61% RH) were also evaluated. In this study, the gravimetric method was used to determine the dry weight of samples with different compositions (expressed in terms of mass of water per mass of solids). […] (below the crystallization temperature of Trehalose). The sample was then cooled in a desiccator containing phosphorus pentoxide (P2O5) which maintained the humidity near 0% RH. By recording the initial wet mass and the bake-out dry mass, the dry weight of each composition was obtained.

[2] = 37.5% RH; cited from earlier work
[3] = 25° C.; cited from earlier work
[4] = remained constant in RH environment of up to 92%; cited from earlier work

Structure (SMILES): C[N+](C)(C)CCO.O=P([O-])(O)O [pure choline dihydrogen phosphate, choline dihydrogen phosphate]
hygroscopicity (moisture uptake) ([1]; 61% RH): very hygroscopic
crystallization observed ([1]; 61% RH, pure salt without trehalose): no crystallization

water absorbed to enable the formation of trehalose dihydrate ([1]; 61% RH): around 0.105 gH2O/g trehalose
moisture content level after crystallization ([1]; 61% RH, level the moisture content fell to after crystallization (pure trehalose: during the following 18 days)): around 0.105 gH2O/gdw
time (day) of onset of sugar crystallization, observed visually ([1]; storage at 61% RH after microwave drying at 11% RH): 1 days
Structure (SMILES): OC[C@H]1O[C@H](O[C@H]2O[C@H](CO)[C@@H](O)[C@H](O)[C@H]2O)[C@H](O)[C@@H](O)[C@@H]1O [pure trehalose, trehalose]
crystals on DSC thermograms [2]: did not show any crystals
RH at which isotherm exhibited a plateau (formation of trehalose dihydrate crystals) [3]: ≥ 44 % RH

Structure (SMILES): OC[C@H]1O[C@H](O[C@H]2O[C@H](CO)[C@@H](O)[C@H](O)[C@H]2O)[C@H](O)[C@@H](O)[C@@H]1O [trehalose dihydrate]
moisture content of trehalose dihydrate [4]: 9.54%
